Results from US9422293B2 (priority 2006, dated 2016).
Structures can show the parent of a compound that is named as a salt.

The compounds below were run against rat TRPV1 (Rattus norvegicus (Rat), UniProt O35433). Conditions: read-out: Rat IC50.
rat TRPV1, sequence (O35433 whole entry): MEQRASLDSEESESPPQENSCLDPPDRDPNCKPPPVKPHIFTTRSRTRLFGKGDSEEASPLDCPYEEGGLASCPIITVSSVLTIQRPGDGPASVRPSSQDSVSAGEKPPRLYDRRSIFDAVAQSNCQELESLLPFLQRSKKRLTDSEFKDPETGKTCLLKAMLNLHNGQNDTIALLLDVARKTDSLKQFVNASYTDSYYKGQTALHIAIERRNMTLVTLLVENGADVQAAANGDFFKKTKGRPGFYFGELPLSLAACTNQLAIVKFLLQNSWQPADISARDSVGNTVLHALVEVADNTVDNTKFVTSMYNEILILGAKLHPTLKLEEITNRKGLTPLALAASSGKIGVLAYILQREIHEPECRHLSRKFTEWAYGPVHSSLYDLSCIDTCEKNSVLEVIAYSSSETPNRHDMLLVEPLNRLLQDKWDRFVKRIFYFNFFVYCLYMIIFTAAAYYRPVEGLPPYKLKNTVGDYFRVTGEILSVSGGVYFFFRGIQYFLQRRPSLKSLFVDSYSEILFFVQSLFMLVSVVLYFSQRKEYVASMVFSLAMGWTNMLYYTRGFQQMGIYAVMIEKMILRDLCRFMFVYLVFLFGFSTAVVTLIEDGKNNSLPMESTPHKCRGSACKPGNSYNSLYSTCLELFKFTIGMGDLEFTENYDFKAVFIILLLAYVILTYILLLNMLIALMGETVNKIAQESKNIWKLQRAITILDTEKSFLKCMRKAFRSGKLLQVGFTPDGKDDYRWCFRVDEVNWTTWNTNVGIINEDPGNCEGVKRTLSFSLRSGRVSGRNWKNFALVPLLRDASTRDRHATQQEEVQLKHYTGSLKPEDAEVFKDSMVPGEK
Experimental: Biological Testing: Functional Assay: Block of Capsaicin-Induced Ca^2+ Influx A. Human Assay
Cells were passaged frequently, every 3-5 days, to avoid overgrowth, depletion of essential medium components, or acidic medium exposure. Cells were passaged using a brief wash in 0.05% trypsin with 1 mM EDTA, followed by dissociation in divalent-free phosphate-buffered saline (Hyclone #SH30028.02). […] The assay buffer was composed of 130 mM NaCl, 2 mM KCl, 2 mM MgCl2, 10 mM HEPES, 5 mM glucose, and either 2 mM or 20 μM CaCl2. On the day of the experiment, the culture medium was replaced with 2 mM calcium assay buffer using an automated plate washer (ELx405; Biotek, VT). […] After loading the cells, the dye solution was replaced with 50 μL/well of 20 μM calcium assay buffer using the ELx405 plate washer. Test compounds (50 μL/well) were added to the plate and incubated for 30 min. […] The IC50 values were determined. […] The contents of the wells were mixed 3 times (40 μL mix volume) immediately after the additions were made. Concentration dependence of block was determined by exposing each well of cells in duplicate rows of a 96 well plate to a serial dilution of test compound. The concentration series usually started at 10 μM with a three-fold serial decrement in concentration. The magnitude of the capsaicin response was determined by measuring the change in fluo3 fluorescence before and 100 seconds after the addition of the agonist. Data were analyzed using a non-linear regression program (Origin; OriginLab, MA). IC50 values shown are the average (mean) of the results obtained.
The assay was performed as described above, using HEK293 cells transfected with rat TRPV1 (rTRPV1/HEK293). […] IC50 values shown are the average (mean) of the results obtained.

Structure (SMILES) | IC50
CN(C)c1nc2c(c(Nc3ccc([N+](=O)[O-])cc3)n1)CCN(c1ncccc1C(F)(F)F)CC2 [Example 72B, N^2,N^2-Dimethyl-N^4-(4-nitro-phenyl)-7-(3-trifluoromethyl-pyridin-2-yl)-6,7,8,9-tetrahydro-5H-pyrimido[4,5-d]azepine-2,4-diamine trifluoroacetic acid salt] | 180 nM
CSc1nc2c(c(Nc3ccc(C(F)(F)F)cn3)n1)CCN(c1ncccc1C(F)(F)F)CC2 [Example 74B, [2-Methylsulfanyl-7-(3-trifluoromethyl-pyridin-2-yl)-6,7,8,9-tetrahydro-5H-pyrimido[4,5-d]azepin-4-yl]-(5-trifluoromethyl-pyridin-2-yl)-amine trifluoroacetic acid salt] | 3900 nM
CSc1nc2c(c(Nc3ccc(C(F)(F)F)nc3)n1)CCN(c1ncccc1C(F)(F)F)CC2 [Example 75B, [2-Methylsulfanyl-7-(3-trifluoromethyl-pyridin-2-yl)-6,7,8,9-tetrahydro-5H-pyrimido[4,5-d]azepin-4-yl]-(6-trifluoromethyl-pyridin-3-yl)-amine trifluoroacetic acid salt] | 40 nM
COC(=O)c1ccc(Nc2nc(N(C)C)nc3c2CCN(c2ncccc2C(F)(F)F)CC3)cc1 [Example 77B, 4-[2-Dimethylamino-7-(3-trifluoromethyl-pyridin-2-yl)-6,7,8,9-tetrahydro-5H-pyrimido[4,5-d]azepin-4-ylamino]-benzoic acid methyl ester trifluoroacetic acid salt] | 580 nM
CN(C)c1ccc(Nc2nc(N(C)C)nc3c2CCN(c2ncccc2C(F)(F)F)CC3)cc1 [Example 79B, N^4-(4-Dimethylamino-phenyl)-N^2,N^2-dimethyl-7-(3-trifluoromethyl-pyridin-2-yl)-6,7,8,9-tetrahydro-5H-pyrimido[4,5-d]azepine-2,4-diamine trifluoroacetic acid salt] | 1300 nM
COCc1nc2c(c(Nc3ccc(C(F)(F)F)c(Cl)c3)n1)CCN(c1ncccc1C(F)(F)F)CC2 [Example 80B, (3-Chloro-4-trifluoromethyl-phenyl)-[2-methoxymethyl-7-(3-trifluoromethyl-pyridin-2-yl)-6,7,8,9-tetrahydro-5H-pyrimido[4,5-d]azepin-4-yl]-amine trifluoroacetic acid salt] | 130 nM
COc1ccc(Nc2nc(N(C)C)nc3c2CCN(c2ncccc2C(F)(F)F)CC3)cc1 [Example 81B, N^4-(4-Methoxy-phenyl)-N^2,N^2-dimethyl-7-(3-trifluoromethyl-pyridin-2-yl)-6,7,8,9-tetrahydro-5H-pyrimido[4,5-d]azepine-2,4-diamine trifluoroacetic acid salt] | 970 nM
CN(C)c1nc2c(c(NC3Cc4ccccc4C3)n1)CCN(c1ncccc1C(F)(F)F)CC2 [Example 82B, N^4-Indan-2-yl-N^2,N^2-dimethyl-7-(3-trifluoromethyl-pyridin-2-yl)-6,7,8,9-tetrahydro-5H-pyrimido[4,5-d]azepine-2,4-diamine trifluoroacetic acid salt] | 2800 nM
Cc1cc(N)cnc1N1CCc2nc(C(C)C)nc(Nc3ccc(C(F)(F)F)cc3)c2CC1 [Example 83, [7-(5-Amino-3-methyl-pyridin-2-yl)-2-isopropyl-6,7,8,9-tetrahydro-5H-pyrimido[4,5-d]azepin-4-yl]-(4-trifluoromethyl-phenyl)-amine] | 990 nM
CC(C)c1nc2c(c(Nc3ccc(C(F)(F)F)cc3)n1)CCN(c1ccccc1N)CC2 [Example 84, [7-(2-Amino-phenyl)-2-isopropyl-6,7,8,9-tetrahydro-5H-pyrimido[4,5-d]azepin-4-yl]-(4-trifluoromethyl-phenyl)-amine] | > 20000 nM
CC(C)c1nc2c(c(Nc3ccc(C(F)(F)F)cc3)n1)CCN(c1ccccc1[N+](=O)[O-])CC2 [Example 85, [2-Isopropyl-7-(2-nitro-phenyl)-6,7,8,9-tetrahydro-5H-pyrimido[4,5-d]azepin-4-yl]-(4-trifluoromethyl-phenyl)-amine] | > 6700 nM
CC(C)c1nc2c(c(Nc3ccc(C(F)(F)F)cc3)n1)CCN(c1ncccc1N)CC2 [Example 86, [7-(3-Amino-pyridin-2-yl)-2-isopropyl-6,7,8,9-tetrahydro-5H-pyrimido[4,5-d]azepin-4-yl]-(4-trifluoromethyl-phenyl)-amine] | 850 nM
Cc1cc([N+](=O)[O-])cnc1N1CCc2nc(C(C)C)nc(Nc3ccc(C(F)(F)F)cc3)c2CC1 [Example 87, [2-Isopropyl-7-(3-methyl-5-nitro-pyridin-2-yl)-6,7,8,9-tetrahydro-5H-pyrimido[4,5-d]azepin-4-yl]-(4-trifluoromethyl-phenyl)-amine] | 350 nM
CC(C)c1nc2c(c(Nc3ccc(C(F)(F)F)cc3)n1)CCN(c1ncccc1[N+](=O)[O-])CC2 [Example 88, [2-Isopropyl-7-(3-nitro-pyridin-2-yl)-6,7,8,9-tetrahydro-5H-pyrimido[4,5-d]azepin-4-yl]-(4-trifluoromethyl-phenyl)-amine] | 960 nM
O=C1CN(c2nc3c(c(Nc4ccc(C(F)(F)F)cc4)n2)CCN(c2ncccc2C(F)(F)F)CC3)CCN1 [Example 90B, 4-[4-(4-Trifluoromethyl-phenylamino)-7-(3-trifluoromethyl-pyridin-2-yl)-6,7,8,9-tetrahydro-5H-pyrimido[4,5-d]azepin-2-yl]-piperazin-2-one trifluoroacetic acid salt] | > 6700 nM
O[C@@H]1CCCN(c2nc3c(c(Nc4ccc(C(F)(F)F)cc4)n2)CCN(c2ncccc2C(F)(F)F)CC3)C1 [Example 91B, (R)-1-[4-(4-Trifluoromethyl-phenylamino)-7-(3-trifluoromethyl-pyridin-2-yl)-6,7,8,9-tetrahydro-5H-pyrimido[4,5-d]azepin-2-yl]-piperidin-3-ol trifluoroacetic acid salt] | 240 nM
CN1CCN(c2nc3c(c(Nc4ccc(C(F)(F)F)cc4)n2)CCN(c2ncccc2C(F)(F)F)CC3)CC1 [Example 92B, [2-(4-Methyl-piperazin-1-yl)-7-(3-trifluoromethyl-pyridin-2-yl)-6,7,8,9-tetrahydro-5H-pyrimido[4,5-d]azepin-4-yl]-(4-trifluoromethyl-phenyl)-amine trifluoroacetic acid salt] | 270 nM
COCCN(C)c1nc2c(c(Nc3ccc(C(F)(F)F)cc3)n1)CCN(c1ncccc1C(F)(F)F)CC2 [Example 93B, N^2-(2-Methoxy-ethyl)-N^2-methyl-N^4-(4-trifluoromethyl-phenyl)-7-(3-trifluoromethyl-pyridin-2-yl)-6,7,8,9-tetrahydro-5H-pyrimido[4,5-d]azepine-2,4-diamine trifluoroacetic acid salt] | 37 nM
O[C@H]1CCCN(c2nc3c(c(Nc4ccc(C(F)(F)F)cc4)n2)CCN(c2ncccc2C(F)(F)F)CC3)C1 [Example 94B, (S)-1-[4-(4-Trifluoromethyl-phenylamino)-7-(3-trifluoromethyl-pyridin-2-yl)-6,7,8,9-tetrahydro-5H-pyrimido[4,5-d]azepin-2-yl]-piperidin-3-ol trifluoroacetic acid salt] | 190 nM
FC(F)(F)c1ccc(Nc2nc(NCC3CC3)nc3c2CCN(c2ncccc2C(F)(F)F)CC3)cc1 [Example 95B, N^2-Cyclopropylmethyl-N^4-(4-trifluoromethyl-phenyl)-7-(3-trifluoromethyl-pyridin-2-yl)-6,7,8,9-tetrahydro-5H-pyrimido[4,5-d]azepine-2,4-diamine trifluoroacetic acid salt] | 82 nM
CC(=O)c1ccc(Nc2nc(C(C)C)nc3c2CCN(c2ncccc2C(F)(F)F)CC3)cc1 [Example 96, 1-{4-[2-Isopropyl-7-(3-trifluoromethyl-pyridin-2-yl)-6,7,8,9-tetrahydro-5H-pyrimido[4,5-d]azepin-4-ylamino]-phenyl}-ethanone] | 340 nM
CC(C)c1nc2c(c(Nc3ccc(C#N)cc3)n1)CCN(c1ncccc1C(F)(F)F)CC2 [Example 97, 4-[2-Isopropyl-7-(3-trifluoromethyl-pyridin-2-yl)-6,7,8,9-tetrahydro-5H-pyrimido[4,5-d]azepin-4-ylamino]-benzonitrile] | 490 nM
FC(F)(F)c1ccc(Nc2nc(N3CCNCC3)nc3c2CCN(c2ncccc2C(F)(F)F)CC3)cc1 [Example 99B, [2-Piperazin-1-yl-7-(3-trifluoromethyl-pyridin-2-yl)-6,7,8,9-tetrahydro-5H-pyrimido[4,5-d]azepin-4-yl]-(4-trifluoromethyl-phenyl)-amine trifluoroacetic acid salt] | 7200 nM
FC(F)(F)c1ccc(Nc2nc(N3CCSCC3)nc3c2CCN(c2ncccc2C(F)(F)F)CC3)cc1 [Example 100, [2-Thiomorpholin-4-yl-7-(3-trifluoromethyl-pyridin-2-yl)-6,7,8,9-tetrahydro-5H-pyrimido[4,5-d]azepin-4-yl]-(4-trifluoromethyl-phenyl)-amine] | 31 nM
CC(C)c1nc2c(c(Nc3ccc(S(=O)(=O)C(F)(F)F)cc3)n1)CCN(c1ncccc1C(F)(F)F)CC2 [Example 101B, [2-Isopropyl-7-(3-trifluoromethyl-pyridin-2-yl)-6,7,8,9-tetrahydro-5H-pyrimido[4,5-d]azepin-4-yl]-(4-trifluoromethanesulfonyl-phenyl)-amine trifluoroacetic acid salt] | 990 nM
FC(F)(F)c1ccc(Nc2nc(N3CCN(Cc4ccccc4)CC3)nc3c2CCN(c2ncccc2C(F)(F)F)CC3)cc1 [Example 102, [2-(4-Benzyl-piperazin-1-yl)-7-(3-trifluoromethyl-pyridin-2-yl)-6,7,8,9-tetrahydro-5H-pyrimido[4,5-d]azepin-4-yl]-(4-trifluoromethyl-phenyl)-amine] | 170 nM
COC(=O)c1ccc(Nc2nc(C(C)C)nc3c2CCN(c2ncccc2C(F)(F)F)CC3)cc1 [Example 103, 4-[2-Isopropyl-7-(3-trifluoromethyl-pyridin-2-yl)-6,7,8,9-tetrahydro-5H-pyrimido[4,5-d]azepin-4-ylamino]-benzoic acid methyl ester] | 340 nM
CC(C)c1nc2c(c(Nc3ccc(SC(F)(F)F)cc3)n1)CCN(c1ncccc1C(F)(F)F)CC2 [Example 104, [2-Isopropyl-7-(3-trifluoromethyl-pyridin-2-yl)-6,7,8,9-tetrahydro-5H-pyrimido[4,5-d]azepin-4-yl]-(4-trifluoromethylsulfanyl-phenyl)-amine] | 320 nM
